Consider four compounds from US8969313B2, “Methods and compounds for preventing and treating a tumour” (Agency for Science, Technology and Research, priority 2007, dated 2015).

For data set [1], the system named is DACT1 and DACT2 promoters. As to the kind of experiment: Methylation specific PCR (MSP) of DACT promoters after 5-AzaC. The note with it: HCT116 cells. Format: cell-based, human. The source says:
(§1) A: Hierarchical clustering of Wnt inhibitors (upper) and Wnt/β-catenin target genes (lower) in human colorectal tumors (T) and matched normal mucosa (N). White signals in the upper panel indicate above-mean expression; white signals in the lower panel indicate below-mean expression. B: RT-PCR analysis of SFRP1 and DACT1, 2 and 3 from random-selected 8 pairs of human colorectal tumor and matched mucosa. C: Methylation status of SFRP1 and DACT3 in 8 tumors determined by methylation specific PCR (MSP) assay. M1, M2, M3 and M4 represent the examined PCR regions covering the entire CpG island of DACT3 promoter. D: RT-PCR analysis of SFRP1 and DACT1, 2 and 3 in a panel of colorectal cancer cell lines compared to the normal tissue. E: Methylation status of SFRP1 and DACT1, 2 and 3 in colorectal cancer cell lines. F: Determination of methylation status of CpG sites by sequencing of bisulphite-modified DNA from normal and colorectal cancer cell lines. Arrows indicate the transcription start sites. Open cycles represent unmethylated CpGs; closed cycles denote methylated CpGs. […]
The CpG island DNA methylation status was determined by PCR analysis after bisulfited modification and followed by methylation-specific PCR (MSP) and bisulfite genomic sequencing (BGS) (Yoshikawa, H., et al., Nat Genet (2001) 28, 29-35). […]

For data set [2], the system named is SFRP1, DACT1, DACT2, DACT3. Kind of data set: RT-PCR analysis of SFRP1 and DACT1, 2 and 3 after 5-AzaC. Format: cell-based, human. The note with it: HCT116 cells, 5-AzaC 5 μM for 3 days.
From the text: as §1, with “CpGs. G: MSP analysis of DACT1, 2 and 3 promoters in HCT116 cells untreated or treated with 5-AzaC and in HCT116-DNMT1/DNMT3b−/− (DKO) cells. H: RT-PCR analysis of SFRP1 and DACT1, 2 and 3 in HCT116 and DLD1 cells treated with 5-AzaC (5 μM) for 3 days and in DKO cells.” for “CpGs.”

The subject of the next data set is histone modifications. As to the kind of experiment: Immunoblotting of bulk histone modifications in HT29 and SW480 cells. Format: cell-based, human. Here is the method:
FIG. 5. Effects of combination of DZNep and TSA on DACT3 and histone modifications. A: DACT3 mRNA expression analysis using Illumina Beadarray in DLD1 cells treated with 5 μM DZNep, 5 μM 5-AzaC, 200 nM TSA or their combinations. The data shown represents Mean±SD of three independent experiments. B: Indicated colorectal cancer cell lines were treated with DZNep, TSA or both. RNA was harvested and subjected to array analysis (1: DCAT2, 2: DACT2, 3: DCAT3, 4: DKK4, 5: DKK3, 6: DKKL1, 7: DKK2, 8: DKK3, 9: DKK1, 10: SFRP4, 11: SFRP2, 12: SFRP5, 13: SFRP3, 14: SFRP1). Changes of expression of known Wnt/β-catenin antagonists are shown. C: Immunoblotting analysis of bulk histone modifications induced by DZNep, TSA or both in HT29 cells and SW480 cells. D: ChIP analysis of indicated the changes of histone marks at the DACT1 and DACT3 loci in HT29 cells untreated (white bars) or treated with DZNep and TSA (black bars). The values represent the normalized enrichments against the changes of a low background region before and after the drug treatment. The data represent Mean±SD of three independent experiments.
Human tissue samples were obtained from Singapore Tissue Network using protocols approved by institutional Review Board of National University of Singapore; informed consent was obtained from each individual who provided the tissues. The colorectal cancer cell lines and non-transformed cell lines used in this study were purchased from the American Type Culture Collection (Manassas, Va.). HCT116 cells with genetic disruption of DNMT1 (DNA methyltransferase 1) and DNMT3B (DNA methyltransferase 3B) (HCT116 DKO) were kindly provided by Dr. Bert Vogelstein (Johns Hopkins University, MD). For drug treatment, cells were seeded the day before the drug treatment. Cells were treated with 5 μM 3-Deazaneplanocin A (DZNep) (obtained from Dr. Victor E. Marquez at National Cancer Institute, USA) or 5 μM 5-aza-2′-deoxycytidine (5-AzaC; Sigma) for 72 hours and Trichostatin A (TSA; Cell Signaling) at 100-200 nM for 24 hours. […]
For orientation: A western blot detects proteins with antibodies after separation by electrophoresis.

In a further data set the test system is DACT3, DVL2, β-catenin. Kind of data set: Immunoblot analysis of DACT3, DVL2 and β-catenin in SW480 and DLD1 cells. Format: cell-based, human. The following applies: DZNep 5 μM, TSA 100 nM. Here is the method: FIG. 6. Combination of DZNep and TSA results in blockade of Wnt/β-catenin signaling and massive apoptosis in colorectal cancer cells. A: Immunoblot analysis of DACT3, DVL2, total β-catenin, and non-phosphorylated β-catenin (Active-β-catenin) in SW480 and DLD1 cells treated with DZNep (5 μM), TSA (100 nM) or both. B: Immunofluorescent images of DLD1 and SW480 cells treated with DZNep/TSA. β-catenin staining is red, nuclear staining is green (DRAQ5). C: Indicated colorectal cancer cell lines were treated as above; RNA was harvested and subjected to array analysis. Changes of expression of known Wnt/β-catenin target genes were shown using gene clustering program. […] D: Numeric values of data depicted in FIG. 6C (D+T=DZNep+TSA). E: DLD1 and HT29 cells were treated as in A, and cell death was determined by PI staining and FACS analysis. The data represent Mean±SD of three independent experiments. F: HT29 cells were treated as in A, and Caspase 3 activity was measured by FACS analysis. G: HT29 cells were treated as in A, followed by JC-1 staining and FACS analysis.
Human tissue samples were obtained from Singapore Tissue Network using protocols approved by institutional Review Board of National University of Singapore; informed consent was obtained from each individual who provided the tissues. The colorectal cancer cell lines and non-transformed cell lines used in this study were purchased from the American Type Culture Collection (Manassas, Va.). HCT116 cells with genetic disruption of DNMT1 (DNA methyltransferase 1) and DNMT3B (DNA methyltransferase 3B) (HCT116 DKO) were kindly provided by Dr. Bert Vogelstein (Johns Hopkins University, MD). For drug treatment, cells were seeded the day before the drug treatment. Cells were treated with 5 μM 3-Deazaneplanocin A (DZNep) (obtained from Dr. Victor E. Marquez at National Cancer Institute, USA) or 5 μM 5-aza-2′-deoxycytidine (5-AzaC; Sigma) for 72 hours and Trichostatin A (TSA; Cell Signaling) at 100-200 nM for 24 hours. For 5-AzaC treatment, the medium was replaced with freshly added 5-AzaC for every 24 h. For co-treatment of cells with DZNep and TSA, DZNep was added for 24 hours followed by TSA for additional 24 hours for gene expression analysis and 48 hours for FACS analysis.
Immunoblotting was performed as described previously (Tan et al., 2007, supra). The blots were probed with the following antibodies: anti-H3K27me3 (07-449), anti-H3K9me3 (07-442), anti-H3K9/K14 ac (06-599), anti-H3K4me3 (07-473) and anti-active β-catenin(05-665), were purchased from Upstate. Anti-H4K20me3 (ab9053) was from Abcam. Anti-β-catenin (6B3) and anti-H3 (3H1) were from Cell Signaling and anti-DVL2 (sc-8026) was from Santa Cruz. […]

For data set [3], the system named is polycomb-repressive complex 2. The following applies: Tan et al., 2007; cited from earlier work.
A short description of a further data set: in vivo. The following applies: BALB/c nude, mouse, ip.
A short description of data set [4]: Initial maximum tolerated dose (MTD) study of DZNep.
Data set [5] is classed as in vivo. Here is the method: FIG. 16. […]. The body weight was maintained at >80% in all groups. […].
For the HCT-116 study, nude mice that had received HCT-116 xenografts at day −7 were assigned into 4 groups of 7 animals each, and drug treatment was initiated on day 0 (see FIG. 1 for protocol outline): Group 1—vehicle control for both used compounds (Saline i.p. 3×/week in the morning, MC/Tween p.o. q.d. in the afternoon); Group 2—SAHA (200 mg/kg q.d. p.o. in the afternoon, plus the DZNep vehicle Saline 3/week i.p. in the morning); […]. The study was terminated on Day +14.
The study was conducted as using the protocol described in FIG. 15. The combination study was started using four groups of BALB/c nude mice bearing HCT-116 tumors (n=7 mice/group, initial mean tumor volume 6 days after inoculation: 91-107 mm^3). […]

With `Nc1ncn([C@H]2C[C@H](O)[C@@H](CO)O2)c(=O)n1` [5-AzaC, 5-aza-2′-deoxycytidine], the “methylation at the DACT1 and DACT2 promoters” value in data set [1] is “decreased methylation”. The “expression of SFRP1, DACT1, DACT2 and DACT3” value in data set [2] was “increased expression of SFRP1, DACT1 and DACT2, but not DACT3”.
With `Nc1nccc2c1ncn2C1C=C(CO)C(O)C1O` (stereo not drawn) [DZNep, 5-(4-amino-1H-imidazo[4,5-c]pyridin-1-yl)-3-(hydroxymethyl)-3-cyclopentene-1,2-diol], in the data set on histone modifications, the “H3K4me3 (bulk histone, Western blot)” value is “slight decrease”; the “H3K9me3 (bulk histone, Western blot)” value is given as “little effect”; the “H3K27me3 and H4K20me3 (bulk histone, Western blot)” value is listed as “strong reduction”. In addition, in the data set with DACT3, DVL2, β-catenin, the DACT3 protein levels result was “did not cause such changes” and the DVL2 levels result is given as “did not cause such changes”. In addition, the “effect on polycomb-repressive complex 2 and histone methylation” value in data set [3] is “depletes components of the polycomb-repressive complex 2 and inhibits histone methylation”. For the same compound, the MTD at 5 day in “in vivo” turned out to be 10 mg/kg. Further, the highest weight loss in data set [4] (10 mg/kg group, day 2) is 2.2%. For the same compound, the deaths entry in data set [4] (15 mg/kg group, day 3, in the absence of significant weight loss) was “Two of three mice died”.
As to `O=C(CCCCCCC(=O)Nc1ccccc1)NO` [SAHA, N′-hydroxy-N-phenyl-octanediamide], the “treatment-related death (TRD)” value in data set [5] (day 10, body weight 82%, n=7/group) is reported as 1. Further, in data set [5] (day 14, DZNep 5 mg/kg i.p. 3×/week, SAHA 200 mg/kg p.o. q.d., HCT-116 tumour-bearing mice), the body weight is 96.8%.
In the case of `CC(/C=C/C(=O)NO)=C\[C@@H](C)C(=O)c1ccc(N(C)C)cc1` [TSA, 7-[R-(E,E)]-[4-(dimethylamino)phenyl]-N-hydroxy-4,6-dimethyl-7-oxo-2,4-heptadienamide, reference compound], in the data set with DACT3, DVL2, β-catenin, the DACT3 protein levels entry is “did not cause such changes” and the DVL2 levels entry was “did not cause such changes”.
